Columns and labels:
Details in all cases: 48 h
SEM cells [1] = assay: cell viability relative to DMSO control; higher = less cytotoxic
How it was run: (§1)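 Library compounds in DMSO were pin-dosed in an 11-point threefold series (47 μM to 0.79 nM) onto leukemia cells in 1536-well plates (5 μl). Plates held 500 cells/well of NOMO1 or SEM or 1000 cells/well of P12-Ichikawa, each adapted for at least four passages in each medium. Luminescence was read with CellTiter-Glo One after 48 h at 37°C. Viability means the per-plate percentage relative to DMSO wells, using cell-free wells as background.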

P12-Ichikawa [2] = assay: as above
How it was run: as §1

SEM cells [3] = assay: AUC of viability dose-response curve (% viability x log10 dose units); higher = less sensitive
How it was run: (§2)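 In 1536-well plates, leukemia cells adapted to each medium (500 or 1000 cells/well) were exposed for 48 h at 37°C to library compounds in DMSO across 11 threefold doses, 47 μM down to 0.79 nM. Viability was read by CellTiter-Glo One luminescence and normalised per plate to DMSO and cell-free wells. A four-parameter log-logistic fit over log10 doses was integrated by trapezoidal rule. This yielded the area under the curve, with over-full-viability curves scaled and quality-control failures dropped.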

P12-Ichikawa [4] = assay: as above
How it was run: as §2

NOMO1 [5] = assay: as above
How it was run: as §2

NOMO1 [6] = assay: cell viability relative to DMSO control; higher = less cytotoxic
How it was run: as §1

CC(C)(C)C1=NC2=C([NH]1)C3=CC=C(F)C=C3C4=C2\C=C/NC4=O
cell viability [%]
Details	P12-Ichikawa [2]	SEM cells [1]
HPLM + 10% dialyzed FBS, 0.000781 µM	–	118
HPLM + 10% dialyzed FBS, 0.00234 µM	–	114
HPLM + 10% dialyzed FBS, 0.00702 µM	–	130
HPLM + 10% dialyzed FBS, 0.0211 µM	–	130
HPLM + 10% dialyzed FBS, 0.0632 µM	–	125
HPLM + 10% dialyzed FBS, 0.19 µM	–	116
HPLM + 10% dialyzed FBS, 0.569 µM	–	111
HPLM + 10% dialyzed FBS, 1.71 µM	–	89
HPLM + 10% dialyzed FBS, 5.12 µM	–	38.8
HPLM + 10% dialyzed FBS, 15.4 µM	–	32.1
HPLM + 10% dialyzed FBS, 46.1 µM	–	50.1
RPMI 5 mM glucose + 10% FBS, 0.000781 µM	118	96.8
RPMI 5 mM glucose + 10% FBS, 0.00234 µM	133	116
RPMI 5 mM glucose + 10% FBS, 0.00702 µM	123	141
RPMI 5 mM glucose + 10% FBS, 0.0211 µM	134	115
RPMI 5 mM glucose + 10% FBS, 0.0632 µM	123	126
RPMI 5 mM glucose + 10% FBS, 0.19 µM	122	138
RPMI 5 mM glucose + 10% FBS, 0.569 µM	113	114
RPMI 5 mM glucose + 10% FBS, 1.71 µM	108	98.6
RPMI 5 mM glucose + 10% FBS, 5.12 µM	69.7	37.2
RPMI 5 mM glucose + 10% FBS, 15.4 µM	17.8	18.1
RPMI 5 mM glucose + 10% FBS, 46.1 µM	72.1	32.3

AUC of viability dose-response curve
Details	NOMO1 [5]	P12-Ichikawa [4]	SEM cells [3]
HPLM + 10% dialyzed FBS	415	391	384
RPMI 5 mM glucose + 10% FBS	412	404	378
RPMI 5 mM glucose + 10% dialyzed FBS	408	408	384

C/C=C(/C(=C/C)c1ccc(O)cc1)c1ccc(O)cc1
AUC of viability dose-response curve
Details	NOMO1 [5]	P12-Ichikawa [4]	SEM cells [3]
HPLM + 10% dialyzed FBS	464	469	464
RPMI 5 mM glucose + 10% FBS	431	465	467
RPMI 5 mM glucose + 10% dialyzed FBS	457	465	465

CC(C)[C@@H](N(CCCN)C(=O)C1=CC=C(C)C=C1)C/2=C(\CC3=CC=CC=C3)C(=O)C4=C(O2)C=C(Cl)C=C4
cell viability [%]
Details	NOMO1 [6]	P12-Ichikawa [2]	SEM cells [1]
HPLM + 10% dialyzed FBS, 0.000781 µM	47.8	37.7	22.2
HPLM + 10% dialyzed FBS, 0.00234 µM	38.1	12.6	26.3
HPLM + 10% dialyzed FBS, 0.00702 µM	34.7	11.5	24.4
HPLM + 10% dialyzed FBS, 0.0211 µM	35.9	14.2	24.6
HPLM + 10% dialyzed FBS, 0.0632 µM	40.9	9.91	26.6
HPLM + 10% dialyzed FBS, 0.19 µM	45.8	11.7	23.9
HPLM + 10% dialyzed FBS, 0.569 µM	34.9	12.2	28.2
HPLM + 10% dialyzed FBS, 1.71 µM	36.3	11	25.2
HPLM + 10% dialyzed FBS, 5.12 µM	32.5	10.3	25.7
HPLM + 10% dialyzed FBS, 15.4 µM	40.7	11.8	26.6
HPLM + 10% dialyzed FBS, 46.1 µM	4.73	12.8	5.56
RPMI 5 mM glucose + 10% FBS, 0.000781 µM	20.1	18.4	13.8
RPMI 5 mM glucose + 10% FBS, 0.00234 µM	26.5	15.8	20.2
RPMI 5 mM glucose + 10% FBS, 0.00702 µM	29	15	19.9
RPMI 5 mM glucose + 10% FBS, 0.0211 µM	26.4	18.5	22.5
RPMI 5 mM glucose + 10% FBS, 0.0632 µM	21.9	18	20
RPMI 5 mM glucose + 10% FBS, 0.19 µM	29	17.6	22.6
RPMI 5 mM glucose + 10% FBS, 0.569 µM	21.1	14	22.4
RPMI 5 mM glucose + 10% FBS, 1.71 µM	23.9	17.7	19.1
RPMI 5 mM glucose + 10% FBS, 5.12 µM	27.2	15.8	27.9
RPMI 5 mM glucose + 10% FBS, 15.4 µM	31.7	15.7	20.9
RPMI 5 mM glucose + 10% FBS, 46.1 µM	7.48	9.01	13.9
RPMI 5 mM glucose + 10% dialyzed FBS, 0.000781 µM	48.7	70.7	18.5
RPMI 5 mM glucose + 10% dialyzed FBS, 0.00234 µM	34.7	20.4	20.5
RPMI 5 mM glucose + 10% dialyzed FBS, 0.00702 µM	29.5	20.7	20
RPMI 5 mM glucose + 10% dialyzed FBS, 0.0211 µM	30.9	21.9	25.6
RPMI 5 mM glucose + 10% dialyzed FBS, 0.0632 µM	35.1	22.4	19.4
RPMI 5 mM glucose + 10% dialyzed FBS, 0.19 µM	34.6	22.5	26.5
RPMI 5 mM glucose + 10% dialyzed FBS, 0.569 µM	27.2	18.6	20
RPMI 5 mM glucose + 10% dialyzed FBS, 1.71 µM	32.8	20.9	21.1
RPMI 5 mM glucose + 10% dialyzed FBS, 5.12 µM	29.6	21.2	20.8
RPMI 5 mM glucose + 10% dialyzed FBS, 15.4 µM	33.5	19.8	18.5
RPMI 5 mM glucose + 10% dialyzed FBS, 46.1 µM	5.92	16.2	19.4

SEM cells [3]
Details	AUC of viability dose-response curve
HPLM + 10% dialyzed FBS	116
RPMI 5 mM glucose + 10% FBS	96.8
RPMI 5 mM glucose + 10% dialyzed FBS	99.8

O=C(NCc1ccccc1)[C@H](Cc1ccccc1)NC(=O)[C@H]1O[C@@H]1C(=O)NCCc1ccc(O)cc1
AUC of viability dose-response curve
Details	NOMO1 [5]	P12-Ichikawa [4]	SEM cells [3]
HPLM + 10% dialyzed FBS	431	468	464
RPMI 5 mM glucose + 10% FBS	459	461	463
RPMI 5 mM glucose + 10% dialyzed FBS	425	463	453

Source: the supplement of paper PMC11451515
